Measured values: patent US20050079529A1, “Very large scale immobilized polymer synthesis” (Affymetrix, INC., priority 1989, published 2005)
“Also recorded” adds a separate entry of the source.

System: antibody 3E7
Assay: 10-step binary synthesis array of 1,024 peptides, fluorescence scan after antibody 3E7 and fluoresceinated antibody
Format: binding, mouse
Conditions: not given
Source text: The power of the binary masking strategy can be appreciated by the outcome of a 10-step synthesis that produced 1,024 peptides. The polynomial expression for this 10-step binary synthesis was: (f+Ø)(Y+Ø)(G+Ø)(A+Ø)(G+Ø)(T+Ø)(F+Ø)(L+Ø)(S+Ø)(F+Ø)
Each peptide occupied a 400×400 μm square. A 32×32 peptide array (1,024 peptides, including the null peptide and 10 peptides of l=1, and a limited number of duplicates) was clearly evident in a fluorescence scan following side group deprotection and treatment with the antibody 3E7 and fluoresceinated antibody. Each synthesis site was a 400×400 μm square.
(x=20, y=9). […] The median value of the array was 4,800 counts.
The identity of each peptide in the array could be determined from its x and y coordinates (each range from 0 to 31) and the map of FIG. 29. The chemical units at positions 2, 5, 6, 9, and 10 are specified by the y coordinate and those at positions 1, 3, 4, 7, 8 by the x coordinate. All but one of the peptides was shorter than 10 residues. For example, the peptide at x=12 and y=3 is YGAGF (SEQ ID NO:30; […]).
It is often desirable to deduce a binding affinity of a given peptide from the measured fluorescence intensity. Conceptually, the simplest case is one in which a single peptide binds to a univalent antibody molecule. The fluorescence scan is carried out after the slide is washed with buffer for a defined time. The order of fluorescence intensities is then a measure primarily of the relative dissociation rates of the antibody-peptide complexes. If the on-rate constants are the same (e.g., if they are diffusion-controlled), the order of fluorescence intensities will typically correspond to the order of binding affinities. However, the situation is sometimes more complex because a bivalent primary antibody and a bivalent secondary antibody are used. The density of peptides in a synthesis area corresponded to a mean separation of […], which would allow multivalent antibody-peptide interactions. […] For a more complete analysis of how the present invention can be extended to the binding affinity of an immobilized ligand to a receptor, see U.S. Ser. No. 07/796,947, filed Nov. 22, 1991, and incorporated herein by reference.
With YGAF: SEQ ID NO:8 the “rank of fluorescence in the 1,024 peptide array” value (shortened to “rank of fluorescence”) was “most highly fluorescent”. For YGAFF: SEQ ID NO:13, the “rank of fluorescence” value was “most highly fluorescent”. In the case of YGAFL: SEQ ID NO:6, the “rank of fluorescence” value is reported as “most highly fluorescent”. With YGAFLF: SEQ ID NO:12 the “rank of fluorescence” value was “most highly fluorescent”. With YGAFLS: SEQ ID NO:4 the “rank of fluorescence” value was “brightest element of the array; also recorded: most highly fluorescent”. For YGAFLSF, the “rank of fluorescence” value was “most highly fluorescent”. With YGAFS: SEQ ID NO:5 the “rank of fluorescence” value was “most highly fluorescent”. In the case of YGAFSF: SEQ ID NO:16, the “rank of fluorescence” value is reported as “most highly fluorescent”. In the case of YGAL: SEQ ID NO:11, the “rank of fluorescence” value is reported as “most highly fluorescent”. In the case of YGALS: SEQ ID NO:9, the “rank of fluorescence” value is reported as “most highly fluorescent”. In the case of YGGFLS: SEQ ID NO:7, the “rank of fluorescence” value is reported as “most highly fluorescent”. For YGGFS: SEQ ID NO:10, the “rank of fluorescence” value was “most highly fluorescent”. In the case of YGGLS: SEQ ID NO:14, the “rank of fluorescence” value is reported as “most highly fluorescent”.

System: not listed separately
Assay: Photolysis of N-protected L-phenylalanine in solution
Format: physicochemical
Conditions: 5 mM H2SO4/Dioxane; 0.10 mM protected phenylalanine
Method: The photoremovable protecting groups of the present invention are readily removed. For example, the photolysis of N-protected L-phenylalanine in solution having different photoremovable protecting groups was analyzed, and the results are presented in the following table: […]
With `CC(OC(=O)NC(Cc1ccccc1)C(=O)O)c1cc2c(cc1[N+](=O)[O-])OCO2` (stereo not drawn) [MeNPOC] the “t1/2 in seconds, photolysis of protected L-Phe-OH” value (“t1/2 in seconds, photolysis” below) was 0.367 min. With `O=C(NC(Cc1ccccc1)C(=O)O)OCc1ccccc1[N+](=O)[O-]` (stereo not drawn) [NBOC, reference compound] the “t1/2 in seconds, photolysis” value was 26.25 min. In the case of `COc1cc(COC(=O)NC(Cc2ccccc2)C(=O)O)c([N+](=O)[O-])cc1OC` (stereo not drawn) [NVOC, reference compound], the “t1/2 in seconds, photolysis” value is reported as 1.63 min.

Same assay, conditions: Dioxane; 0.10 mM protected phenylalanine
For `CC(OC(=O)NC(Cc1ccccc1)C(=O)O)c1cc2c(cc1[N+](=O)[O-])OCO2` (stereo not drawn) [MeNPOC], the “t1/2 in seconds, photolysis” value was 0.317 min. With `O=C(NC(Cc1ccccc1)C(=O)O)OCc1ccccc1[N+](=O)[O-]` (stereo not drawn) [NBOC, reference compound] the “t1/2 in seconds, photolysis” value was 21.47 min. For `COc1cc(COC(=O)NC(Cc2ccccc2)C(=O)O)c([N+](=O)[O-])cc1OC` (stereo not drawn) [NVOC, reference compound], the “t1/2 in seconds, photolysis” value was 1.83 min.

System: anti-dynorphin B monoclonal antibody
Assay: Dynorphin B deletion peptide array, relative binding of anti-dynorphin B monoclonal antibody by fluorescence intensity
Conditions: mean ± spread over N synthesis sites
Method: The binding epitope on dynorphin B for the anti-dynorphin B antibody described above was determined by deleting various amino acids and combinations of amino acids from the overall sequence of dynorphin B. The peptides containing these various deletions were prepared on a substrate by the general protection-deprotection methods described above. Then the substrate was exposed to the anti-dynorphin B monoclonal antibody and a fluorescence image was produced as shown in FIG. 33.
From the intensity distribution contained in this plot, it was possible to determine the relative binding affinity to various of the peptides.
For “F L R R Q F K V V T: deletion peptide from the dynorphin B sequence (FLRRQFKVVT)”, the “RELATIVE INTENSITY” value was 84.2 ± 28.2. For “F L R R Q F K V V: deletion peptide from the dynorphin B sequence (FLRRQFKVV)”, the “RELATIVE INTENSITY” value was 37.4 ± 14.6. With “F L R R Q F K V: deletion peptide from the dynorphin B sequence (FLRRQFKV)” the “RELATIVE INTENSITY” value was 13.7 ± 3.0. For “F L R R Q F K: deletion peptide from the dynorphin B sequence (FLRRQFK)”, the “RELATIVE INTENSITY” value was 10.2 ± 2.8. With “F L R R Q F: deletion peptide from the dynorphin B sequence (FLRRQF)” the “RELATIVE INTENSITY” value was 8.5 ± 3.4. For “K V V T: deletion peptide from the dynorphin B sequence, SEQ ID NO:36 (KVVT)”, the “RELATIVE INTENSITY” value was 10.7 ± 1.8. In the case of “L R R Q F K V V T: deletion peptide from the dynorphin B sequence (LRRQFKVVT)”, the “RELATIVE INTENSITY” value is reported as 86.9 ± 13.7. In the case of “Q F K V V T: deletion peptide from the dynorphin B sequence (QFKVVT)”, the “RELATIVE INTENSITY” value is reported as 36.2 ± 16.0. In the case of “R R Q F K V V T: deletion peptide from the dynorphin B sequence (RRQFKVVT)”, the “RELATIVE INTENSITY” value is reported as 98.8 ± 0.9.

Same assay, conditions: second value in parentheses
In the case of “F L R R Q F K V V T: deletion peptide from the dynorphin B sequence (FLRRQFKVVT)”, the “RELATIVE INTENSITY, value in parentheses (ADJUSTED)” value is reported as “(98.3 ± 1.2)”. With “F L R R Q F K V V: deletion peptide from the dynorphin B sequence (FLRRQFKVV)” the “RELATIVE INTENSITY, value in parentheses (ADJUSTED)” value was “(30.5 ± 5.4)”.

System: antibody 3E7
Assay: 10-step binary synthesis array of 1,024 peptides, fluorescence scan after antibody 3E7 and fluoresceinated antibody
Format: binding, mouse
Conditions: additional binary syntheses based on peptides on phage leads
With YGAFM: SEQ ID NO:19 the “fluorescence signal relative to YGGFM” value was “stronger fluorescence signals than does YGGFM”. For YGAFMQ: SEQ ID NO:18, the “fluorescence signal relative to YGGFM” value was “stronger fluorescence signals than does YGGFM”. With YGAFQ: SEQ ID NO:20 the “fluorescence signal relative to YGGFM” value was “stronger fluorescence signals than does YGGFM”.
